Several values for one entry are separate records, joined by “and”; a condition that tells them apart may be missing. Identical values can stand only once. Like-named read-outs stand apart in the source and are kept apart here.
What was measured:
[1] = molecular target: T1, CDK6/Cyclin D1 (Homo sapiens, UniProt Q00534); assay: NanoBRET live-cell target engagement, NanoLuc-CDK6/Cyclin D1 in HEK-293; assay type: binding
[2] = molecular target: CDK18/Cyclin Y (Homo sapiens, UniProt Q07002); assay: NanoBRET live-cell target engagement, CDK18-NanoLuc/Cyclin Y in HEK-293; assay type: binding
[3] = test system: all 21 human CDKs; assay: Live-cell selectivity profile across all 21 CDK/cyclin complexes in HEK-293; assay type: binding; settings: remaining CDK family, live HEK-293; read-out: Collateral CDK (potency)
[4] = test system: phospho-Rb (Ser 807/811); assay: Endogenous phospho-Rb (Ser 807/811) Lumit immunoassay in MCF7 cells; assay type: cell-based, human; settings: for IC50: Homo sapiens, MCF7 cells, Panel F pIC50 correlations; for Normalized pRB (%): Panel E;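 for all read-outs here: Serum-starved cells exposed to compounds for 24 h with 25 ng/mL hEGF, then lysed, phospho-Rb detected by split-luciferase antibody pair luminescence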
[5] = molecular target: CDK4/Cyclin D1 (Homo sapiens, UniProt P11802); assay: Target engagement analysis in MCF7 cells, NLuc-CDK4/Cyclin D1; assay type: binding; settings: Panel D;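 note: MCF7 cells transiently transfected to express NLuc-tagged CDK4 together with Cyclin D1, with the assay run in Opti-MEM medium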
[6] = molecular target: T1, CDK6/Cyclin D1; assay: Target engagement analysis in MCF7 cells, NLuc-CDK6/Cyclin D1; assay type: binding; settings: Panel C;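 note: MCF7 cells transiently co-transfected with an NLuc-CDK6 fusion plasmid plus a Cyclin D1 expression plasmid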
[7] = CDK6/D1, 10µM, average of replicates, read-out: Inhibition at 10µM (%) Average
[8] = CDK6/D1, 10µM, read-out: Inhibition at 10µM (%) Replicate 1
[9] = CDK6/D1, 10µM, read-out: Inhibition at 10µM (%) Replicate 2
[10] = CDK18/Y, 10µM, average of replicates, read-out: Inhibition at 10µM (%) Average
[11] = CDK18/Y, 10µM, read-out: Inhibition at 10µM (%) Replicate 1
[12] = CDK18/Y, 10µM, read-out: Inhibition at 10µM (%) Replicate 2
[13] = LOG10([Compound]) (LOG10(µM)) 0.0457575
[14] = LOG10([Compound]) (LOG10(µM)) 0.522879
[15] = LOG10([Compound]) (LOG10(µM)) 1
[16] = LOG10([Compound]) (LOG10(µM)) -0.431364
[17] = LOG10([Compound]) (LOG10(µM)) -0.908485
[18] = LOG10([Compound]) (LOG10(µM)) -1.38561
[19] = LOG10([Compound]) (LOG10(µM)) -1.86273
[20] = LOG10([Compound]) (LOG10(µM)) -2.33985
[21] = LOG10([Compound]) (LOG10(µM)) -2.81697
[22] = LOG10([Compound]) (LOG10(µM)) -3.29409

CDK18/Cyclin Y, sequence (Q07002 whole entry): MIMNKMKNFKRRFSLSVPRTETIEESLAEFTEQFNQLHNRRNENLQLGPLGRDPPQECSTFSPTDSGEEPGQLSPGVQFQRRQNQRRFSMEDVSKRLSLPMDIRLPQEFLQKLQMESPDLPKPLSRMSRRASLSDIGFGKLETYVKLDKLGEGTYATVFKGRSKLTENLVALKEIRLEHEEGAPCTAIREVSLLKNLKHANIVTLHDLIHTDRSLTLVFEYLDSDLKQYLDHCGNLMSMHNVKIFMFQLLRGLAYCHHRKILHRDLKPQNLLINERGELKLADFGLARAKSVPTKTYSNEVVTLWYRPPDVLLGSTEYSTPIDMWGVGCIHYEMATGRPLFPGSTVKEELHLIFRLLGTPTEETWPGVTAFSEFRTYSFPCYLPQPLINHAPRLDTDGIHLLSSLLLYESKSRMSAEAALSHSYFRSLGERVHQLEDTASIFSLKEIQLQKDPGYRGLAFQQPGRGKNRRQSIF
CDK18/Cyclin Y, sequence (Q8ND76 whole entry partner): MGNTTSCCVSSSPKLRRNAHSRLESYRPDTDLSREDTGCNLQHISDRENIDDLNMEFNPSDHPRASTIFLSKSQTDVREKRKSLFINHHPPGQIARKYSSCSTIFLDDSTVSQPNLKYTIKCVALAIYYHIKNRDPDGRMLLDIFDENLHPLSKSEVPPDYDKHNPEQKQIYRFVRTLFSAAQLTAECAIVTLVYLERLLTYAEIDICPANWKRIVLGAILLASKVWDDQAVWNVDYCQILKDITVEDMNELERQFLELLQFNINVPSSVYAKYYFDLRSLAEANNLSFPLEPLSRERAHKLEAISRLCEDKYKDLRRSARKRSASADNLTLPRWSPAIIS
T1 sequence (Q00534 whole entry): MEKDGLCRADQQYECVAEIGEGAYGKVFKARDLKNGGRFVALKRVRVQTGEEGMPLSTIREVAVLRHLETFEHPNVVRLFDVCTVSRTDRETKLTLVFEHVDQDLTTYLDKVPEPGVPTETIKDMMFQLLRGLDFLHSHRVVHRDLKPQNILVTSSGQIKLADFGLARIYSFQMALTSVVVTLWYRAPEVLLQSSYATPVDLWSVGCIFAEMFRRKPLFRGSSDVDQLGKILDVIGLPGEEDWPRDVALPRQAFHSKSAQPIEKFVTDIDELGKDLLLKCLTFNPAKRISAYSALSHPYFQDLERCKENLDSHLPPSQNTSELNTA
T1 sequence (P24385 whole entry partner): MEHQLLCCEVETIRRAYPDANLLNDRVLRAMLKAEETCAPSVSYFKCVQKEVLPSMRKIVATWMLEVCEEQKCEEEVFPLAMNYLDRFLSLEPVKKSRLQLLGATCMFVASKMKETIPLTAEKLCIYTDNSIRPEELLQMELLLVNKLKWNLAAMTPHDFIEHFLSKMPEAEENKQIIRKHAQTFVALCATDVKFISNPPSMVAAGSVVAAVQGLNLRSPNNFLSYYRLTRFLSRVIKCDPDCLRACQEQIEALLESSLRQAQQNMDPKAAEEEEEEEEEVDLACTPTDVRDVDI
CDK4/Cyclin D1, sequence (P11802 whole entry, the tested form may be a part): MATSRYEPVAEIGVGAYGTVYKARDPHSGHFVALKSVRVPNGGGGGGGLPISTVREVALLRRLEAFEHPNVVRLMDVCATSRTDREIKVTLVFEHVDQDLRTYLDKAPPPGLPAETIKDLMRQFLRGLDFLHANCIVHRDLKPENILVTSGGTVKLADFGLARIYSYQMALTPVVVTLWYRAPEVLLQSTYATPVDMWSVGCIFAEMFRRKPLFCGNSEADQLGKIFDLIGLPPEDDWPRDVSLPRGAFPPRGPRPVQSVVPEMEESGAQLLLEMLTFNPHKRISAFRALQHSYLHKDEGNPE
CDK4/Cyclin D1, sequence (P24385 whole entry partner, the tested form may be a part): as the sequence (P24385 whole entry partner) above

Cn1cc(-c2ccc(-c3cncc(Cl)c3N3CCC4(CCNC4=O)CC3)cc2)cn1 [CCT251545] gave an inhibition at 10 µM ([1]; CDK6/D1, average, read-out: Inhibition at 10µM (%)) of -5%, an inhibition at 10 µM ([1]; CDK6/D1, experiment 1, read-out: Inhibition at 10µM (%)) of -11.6% and an inhibition at 10 µM ([1]; CDK6/D1, experiment 2, read-out: Inhibition at 10µM (%)) of 1.5%. The inhibition at 10 µM ([2]; CDK18/Y, average, read-out: Inhibition at 10µM (%)) was 10.8%, the inhibition at 10 µM ([2]; CDK18/Y, experiment 1, read-out: Inhibition at 10µM (%)) was 2.3% and the inhibition at 10 µM ([2]; CDK18/Y, experiment 2, read-out: Inhibition at 10µM (%)) was 19.2%. For the same compound, the IC50 [3] was greater than 1000 nM.

CCN1CCN(Cc2ccc(Nc3ncc(F)c(-c4cc(F)c5nc(C)n(C(C)C)c5c4)n3)nc2)CC1 [Abemaciclib] was tested, and the inhibition at 10 µM [1, 7] was 99.4%, the inhibition at 10 µM [1, 8] was 99.4% and the inhibition at 10 µM [1, 9] was 99.4%. The inhibition at 10 µM [2, 10] was 74.8%, the inhibition at 10 µM [2, 11] was 73.2% and the inhibition at 10 µM [2, 12] was 76.3%. For the same compound, the IC50 ([2]; CDK18/Y, read-out: IC50 (nM) Replicate 1) was 304 nM, the IC50 ([2]; IC50 (nM) Average*, CDK18/Y, n=3 average ± SEM, n=2 average to 2 significant figures) was 380 ± 60 nM and the IC50 ([2]; IC50 (nM) Replicate 2, CDK18/Y) was 350 nM. The IC50 ([2]; IC50 (nM) Replicate 3, CDK18/Y) was 496 nM, the IC50 [4] was 45.7 nM and the “Normalized pRB (%)” value [4, 13] was 13.6% and 13.3%. For the same compound, the “Normalized pRB (%)” value [4, 14] was 24.5% and 23.6% and 23.2%, the “Normalized pRB (%)” value [4, 15] was 20.9% and 22.5% and 21.5% and the “Normalized pRB (%)” value [4, 16] was 18% and 19.1% and 18.8%. For the same compound, the “Normalized pRB (%)” value [4, 17] was 36.6% and 37.6% and 36.8%, the “Normalized pRB (%)” value [4, 18] was 61.8% and 62.2% and 61% and the “Normalized pRB (%)” value [4, 19] was 80.7% and 77.6% and 81.4%. For the same compound, the “Normalized pRB (%)” value [4, 20] was 90.7% and 95% and 86.6%, the “Normalized pRB (%)” value [4, 21] was 91.8% and 94.4% and 95% and the “Normalized pRB (%)” value [4, 22] was 93.5% and 103% and 101.1%.

For COc1cc(F)ccc1-c1ncnc(Nc2cccc(C[S@](C)(=N)=O)c2)n1 [Atuveciclib], the inhibition at 10 µM [1, 7] was 64.1%, the inhibition at 10 µM [1, 8] was 61.7% and the inhibition at 10 µM [1, 9] was 66.4%. It also gave an inhibition at 10 µM [2, 10] of 19.9%, an inhibition at 10 µM [2, 11] of 17.3% and an inhibition at 10 µM [2, 12] of 22.4%. It also gave an IC50 [3] greater than 1000 nM.

In the case of CN1CCN(c2ccc(Nc3ncc4cc5n(c4n3)C3(CCCCC3)CNC5=O)nc2)CC1 [Trilaciclib], the inhibition at 10 µM ([1]; 10µM, average of experiments, read-out: CDK6/D1 Inhibition at 10µM (%)) is reported as 99.4%, the inhibition at 10 µM ([1]; 10µM, independent experiment 1, read-out: CDK6/D1 Inhibition at 10µM (%)) is reported as 98.4% and the inhibition at 10 µM ([1]; 10µM, independent experiment 2, read-out: CDK6/D1 Inhibition at 10µM (%)) is reported as 100%. For the same compound, the inhibition at 10 µM ([2]; 10µM, average of experiments, read-out: CDK18/Y Inhibition at 10µM (%)) was 13.4%, the inhibition at 10 µM ([2]; 10µM, independent experiment 1, read-out: CDK18/Y Inhibition at 10µM (%)) was 6.3% and the inhibition at 10 µM ([2]; 10µM, independent experiment 2, read-out: CDK18/Y Inhibition at 10µM (%)) was 20.6%. For the same compound, the “CDK4 Target Occupancy” value [5, 13] was 104 and 103.238 and 105.143, the “CDK4 Target Occupancy” value [5, 14] was 109.905 and 105.81 and 108 and 106.476 and the “CDK4 Target Occupancy” value [5, 15] was 104.19 and 102.19 and 103.238 and 105.143. The “CDK4 Target Occupancy” value [5, 16] was 107.333 and 104.381 and 108.571 and 104.286, the “CDK4 Target Occupancy” value [5, 17] was 102.286 and 102.857 and 103.333 and 103.048 and the “CDK4 Target Occupancy” value [5, 18] was 103.238 and 101.524 and 101.714 and 103.81. The “CDK4 Target Occupancy” value [5, 19] was 99.1429 and 96.1905 and 95.9048, the “CDK4 Target Occupancy” value [5, 20] was 89.0476 and 92.4762 and 89.4286 and the “CDK4 Target Occupancy” value [5, 21] was 77.4286 and 74.7619 and 73.7143 and 67.1429. The “CDK4 Target Occupancy” value [5, 22] was 58.1905 and 60.6667 and 56.5714 and 57.0476, the “CDK4 Target Occupancy” value ([5]; LOG10([Compound]) (LOG10(µM)) -3.77121) was 32.381 and 31.4286 and 33.3333 and the “CDK6 Target Occupancy” value [6, 13] was 101.609 and 102.011 and 101.117 and 100.76. For the same compound, the “CDK6 Target Occupancy” value [6, 14] was 102.28 and 102.861 and 100.67 and 102.905, the “CDK6 Target Occupancy” value [6, 15] was 101.52 and 101.564 and 101.073 and 101.654 and the “CDK6 Target Occupancy” value [6, 16] was 101.654 and 100.223 and 101.833 and 101.341. For the same compound, the “CDK6 Target Occupancy” value [6, 17] was 100.715 and 100.045 and 100 and 101.028, the “CDK6 Target Occupancy” value [6, 18] was 97.5863 and 94.6363 and 95.9772 and 97.2287 and the “CDK6 Target Occupancy” value [6, 19] was 90.9264 and 90.3453 and 90.1218 and 88.5574. The “CDK6 Target Occupancy” value [6, 20] was 74.567 and 73.0473 and 71.5722 and 77.4723, the “CDK6 Target Occupancy” value [6, 21] was 30.7185 and 35.6353 and 35.9482 and 37.7808 and the IC50 [4] was 20.9 nM. The “Normalized pRB (%)” value [4, 13] was 9.9% and 10.9% and 11.1%, the “Normalized pRB (%)” value [4, 14] was 8.7% and 9.3% and 9.4% and the “Normalized pRB (%)” value [4, 15] was 9.1% and 9.9% and 10.7%. For the same compound, the “Normalized pRB (%)” value [4, 16] was 11.9% and 12.2% and 12.8%, the “Normalized pRB (%)” value [4, 17] was 21.1% and 21.7% and 21.4% and the “Normalized pRB (%)” value [4, 18] was 39.5% and 43.3% and 40.8%. The “Normalized pRB (%)” value [4, 19] was 65.2% and 69.5% and 71.9%, the “Normalized pRB (%)” value [4, 20] was 95% and 98.6% and 94.8% and the “Normalized pRB (%)” value [4, 21] was 103% and 105.2% and 103.9%. For the same compound, the “Normalized pRB (%)” value [4, 22] was 100.3% and 111% and 109%.

Compound CC(C)c1cnn2c(NCc3ccccc3)cc(NCCCCCCN)nc12 [BS-181] has an inhibition at 10 µM [1, 7] of 8.7%, an inhibition at 10 µM [1, 8] of 1.8% and an inhibition at 10 µM [1, 9] of 15.5%. It also gave an inhibition at 10 µM ([2]; read-out: Inhibition at 10µM (%) Average, CDK18/Y, 10µM, average of replicates) of 47.7%, an inhibition at 10 µM ([2]; read-out: Inhibition at 10µM (%) Replicate 1, CDK18/Y, 10µM) of 44.6% and an inhibition at 10 µM ([2]; read-out: Inhibition at 10µM (%) Replicate 2, CDK18/Y, 10µM) of 50.8%. For the same compound, the IC50 [3] was greater than 1000 nM.

From publication PMC7265341, “Quantifying CDK inhibitor selectivity in live cells” (Nature Communications, 2020)
